# From patent US8299083B2, “PDE5 inhibitor compositions and methods for treating cardiac indications” (The Johns Hopkins University, priority 2004, dated 2012)
# Assays:
# [1] = system: C57BL/6 mice, pressure overload by transverse aortic constriction; assay: Serial echocardiography in conscious mice with transverse aortic constriction (TAC); format: in vivo, mouse; settings: for EF (ejection fraction) / HR (heart rate) / LV Dim (dia) / LV Dim (sys) / LV Mass (estimated, truncated ellipsoid model) / Wall Thickness: sildenafil treated
# STAT3 = assay: IL-6 induced STAT3 activation in neonatal rat myocytes; format: cell-based; settings: sildenafil 1 μM
# Procedure: Myocardial tissue extract was electrophoresed in SDS-New Page gel, and probed for both tyrosine phosphorylated (Tyr705) and total Stat3. In additional studies, rat neonatal myocytes were cultured, then exposed to interleukin 6 (IL-6, Cell Signaling, 100 ng/ml) for one hour. […] In other studies, cells were pre-transfected (Lipofectamine™, Invitrogen) with mixed oligonucleotide silencing RNAs for STAT3 (siRNA, SmarTTpool Stat3). Protein extracts were obtained from myocyte extracts after the 1 hour incubation period, and probed for phosphorylated and total protein levels of Stat1 (Tyr701) and Stat3 (Tyr705) (Cell Signaling Inc.). siRNA was transfected into neonatal myocytes.
# [2] = system: C57BL/6 mice, pressure overload by transverse aortic constriction; assay: In vivo cardiac hemodynamics by pressure-volume analysis, TAC mice; set-up: species or system mouse
# Procedure: Pressure overload was produced by transverse aortic constriction.
# Transthoracic two-dimensional guided M-mode echocardiography was performed in non-anesthetized mice. Measurements were done using an echocardiography system, the SEQUOIA C256 (Siemens, Munich, Del.) with the 15 MHz linear-array transducer. Intact heart hemodynamic analysis was performed as described^90. These studies employed a four-electrode pressure-volume catheter (model SPR-839, Millar Instruments) placed through the left ventricular apex in the open chest anesthetized animal and positioned along the longitudinal axis to record chamber volume by impedance and pressure by micromanometry.
# All hemodynamic data were recorded using custom developed software, digitizing signals at 2 KHz. End-diastolic and end-systolic volumes were the average of volumes measured during isovolumic contraction and relaxation, respectively. ESP was the pressure at maximal chamber elastance (P/V ratio)^1. EDP was the diastolic pressure at the lower right hand corner of the pressure-volume loop. Cardiac output was determined from a perivascular flow probe (Transonics, Ithica, N.Y.) placed around the thoracic aorta. Ea was equal to the ratio of end-systolic pressure divided by stroke volume. The volume catheter signal was calibrated for both gain and offset. Gain was determined by setting the catheter-derived cardiac output (equal to pressure-volume loop width times heart rate) to that obtained from the calibrated flow probe value. Offset was determined using the hypertonic saline method Ventricular power was equal to the instantaneous product of pressure times flow, and the peak power was divided by EDV to obtain the power index PMXI^79. […] The slope of this relation Ees was normalized by heart mass and expressed per gm heart mass. Msw was derived from the linear relation between stroke work and EDV from the same set of variably loaded cardiac cycles used to derive Eesn, and is another load-independent assessment of systolic contractile function^4. Tau was obtained from the model: P=Po+ae^−t/□ . . . fitting data during isovolumic relaxation. dP/dt was derived from a digital filter (5-point weighted slope). PFR/EDV was derived from the maximal first derivative of the volume signal during early diastole, divided by EDV.
# PI3Kα = PI3Kα activity in TAC hearts; format: in vivo, mouse; settings: 3 week TAC
# Procedure: (§1) PI3Kα activity was assessed by Elisa assay following immunoprecipitation of PI3K (Seize X IP Kit, Pierce) using a p85α monoclonal antibody (Cell Signaling), with activity measured by fluorescence polarization (Molecular Devices, Perkin-Elmer Victor 3 plate reader). Akt activity (IP with s473-pAkt Ab, GSK-3 fusion protein substrate) was performed using a commercial kit (Cell Signaling Technology, Beverly, Mass.). PKG-1 activity was assayed by calorimetric analysis, CycLex (Clinisciences, Montrouge, FR) from whole heart lysates.
# Akt = Akt activation in TAC hearts (Western blot, activity assay); format: in vivo, mouse; settings: 1 and 9 week TAC
# Procedure: Protein was prepared from snap-frozen heart tissue using extraction buffer as described previously^90. Antibodies included calcineurin (1:2000 dilution, BD Transduction Laboratories (San Diego, Calif.), GSK3β, Ser9-phospho-GSK313, Akt, Ser473-phospho-Akt, ERK, Thr202/Thr204-phospho-ERK (1:1000 dilution, Cell Signaling Technology, Beverly, Mass.). Primary antibody binding was visualized by horse radish peroxidase-conjugated secondary antibodies and enhanced chemiluminescence (Pierce, Rockford, Ill.).
# as §1
smiles,measurement,setting,value
CCCc1nn(C)c2c(=O)[nH]c(-c3cc(S(=O)(=O)N4CCN(C)CC4)ccc3OCC)nc12 [sildenafil],"serial echocardiography, established hypertrophy","[1]; 1-week TAC, then 2 weeks treatment","gradual decline in LV mass and wall thickness, with preservation of systolic ejection"
same,EF (ejection fraction),[1]; Control (sham),96.5 ± 0.2%
same,HR (heart rate),[1]; Control (sham),634 ± 9 min⁻¹
same,LV Dim (dia),[1]; Control (sham),2.87 ± 0.09 mm
same,LV Dim (sys),[1]; Control (sham),0.89 ± 0.05 mm
same,"LV Mass (estimated, truncated ellipsoid model)",[1]; Control (sham),59.1 ± 5.6 mg
same,Wall Thickness,[1]; Control (sham),0.71 ± 0.02 mm
same,EF (ejection fraction),[1]; TAC-3 wks,93.4 ± 1.1 %
same,HR (heart rate),[1]; TAC-3 wks,595 ± 7 min⁻¹
same,LV Dim (dia),[1]; TAC-3 wks,3.09 ± 0.06 mm
same,LV Dim (sys),[1]; TAC-3 wks,1.17 ± 0.08 mm
same,"LV Mass (estimated, truncated ellipsoid model)",[1]; TAC-3 wks,82.2 ± 5.0 mg
same,Wall Thickness,[1]; TAC-3 wks,0.82 ± 0.02 mm
same,EF (ejection fraction),[1]; TAC-6 wks,74.9 ± 7.1 %
same,HR (heart rate),[1]; TAC-6 wks,617 ± 18 min⁻¹
same,LV Dim (dia),[1]; TAC-6 wks,3.67 ± 0.24 mm
same,LV Dim (sys),[1]; TAC-6 wks,2.24 ± 0.37 mm
same,"LV Mass (estimated, truncated ellipsoid model)",[1]; TAC-6 wks,115.6 ± 14.2 mg
same,Wall Thickness,[1]; TAC-6 wks,0.86 ± 0.03 mm
same,EF (ejection fraction),[1]; TAC-9 wks,71.7 ± 9.9 %
same,HR (heart rate),[1]; TAC-9 wks,608 ± 25 min⁻¹
same,LV Dim (dia),[1]; TAC-9 wks,4.14 ± 0.36 mm
same,LV Dim (sys),[1]; TAC-9 wks,2.54 ± 0.57 mm
same,"LV Mass (estimated, truncated ellipsoid model)",[1]; TAC-9 wks,142.5 ± 21.5 mg
same,Wall Thickness,[1]; TAC-9 wks,0.86 ± 0.03 mm
same,IL-6 induced STAT activation,STAT3,prevented the STAT activation
same,CO (cardiac output),[2]; 3 wk TAC + Delay (2 wk) Sil,10.7 ± 0.5 mL/min
same,EDP (LV end-diastolic pressure),[2]; 3 wk TAC + Delay (2 wk) Sil,7.5 ± 0.6 mmHg
same,EDV (LV end-diastolic volume),[2]; 3 wk TAC + Delay (2 wk) Sil,29.4 ± 2.0 µL
same,EF (ejection fraction),[2]; 3 wk TAC + Delay (2 wk) Sil,64.0 ± 4.7%
same,ESP (LV end-systolic pressure),[2]; 3 wk TAC + Delay (2 wk) Sil,184.0 ± 9.1 (b) mmHg
same,ESV (LV end-systolic volume),[2]; 3 wk TAC + Delay (2 wk) Sil,10.9 ± 2.1 µL
same,Ea (effective arterial elastance),[2]; 3 wk TAC + Delay (2 wk) Sil,9.9 ± 0.6 (b) mmHg/μL
same,Eesn (end-systolic elastance normalized to heart mass),[2]; 3 wk TAC + Delay (2 wk) Sil,111.0 ± 31.4 mmHg/μL/g
same,HR (heart rate),[2]; 3 wk TAC + Delay (2 wk) Sil,574.6 ± 21.7 MIN^−
same,Msw (preload recruitable stroke work),[2]; 3 wk TAC + Delay (2 wk) Sil,171.3 ± 27.6 (i) mmHg
same,PFR/EDV (peak diastolic filling rate normalized to EDV),[2]; 3 wk TAC + Delay (2 wk) Sil,30.6 ± 3.6 s⁻¹
same,Tau (time constant of pressure relaxation),[2]; 3 wk TAC + Delay (2 wk) Sil,7.5 ± 0.3 M·s
same,dP/dtmax (maximal rate of pressure rise),[2]; 3 wk TAC + Delay (2 wk) Sil,14879 ± 898 mmHg/s
same,dP/dtmin (peak rate of LV pressure decline),[2]; 3 wk TAC + Delay (2 wk) Sil,−14325 ± 445 (j) mmHg/s
same,dP/dtmx/IP (dP/dtmax normalized to instantaneous developed pressure),[2]; 3 wk TAC + Delay (2 wk) Sil,209.4 ± 11.1 s⁻¹
same,CO (cardiac output),[2]; 3 wk TAC + Sil,9.4 ± 0.5 mL/min
same,EDP (LV end-diastolic pressure),[2]; 3 wk TAC + Sil,7.6 ± 1.4 mmHg
same,EDV (LV end-diastolic volume),[2]; 3 wk TAC + Sil,22.2 ± 1.5 µL
same,EF (ejection fraction),[2]; 3 wk TAC + Sil,72.6 ± 5.7%
same,ESP (LV end-systolic pressure),[2]; 3 wk TAC + Sil,163.6 ± 5.6 (b) mmHg
same,ESV (LV end-systolic volume),[2]; 3 wk TAC + Sil,6.4 ± 1.7 µL
same,Ea (effective arterial elastance),[2]; 3 wk TAC + Sil,10.5 ± 0.8 (b) mmHg/μL
same,Eesn (end-systolic elastance normalized to heart mass),[2]; 3 wk TAC + Sil,133.0 ± 25.1 (i) mmHg/μL/g
same,HR (heart rate),[2]; 3 wk TAC + Sil,598.8 ± 23.8 MIN^−
same,Msw (preload recruitable stroke work),[2]; 3 wk TAC + Sil,162.5 ± 10.5 (i) mmHg
same,PFR/EDV (peak diastolic filling rate normalized to EDV),[2]; 3 wk TAC + Sil,43.1 ± 4.9 (k) sec^−1
same,Tau (time constant of pressure relaxation),[2]; 3 wk TAC + Sil,6.3 ± 0.4 M·s
same,dP/dtmax (maximal rate of pressure rise),[2]; 3 wk TAC + Sil,18638 ± 1379 (f) mmHg/s
same,dP/dtmin (peak rate of LV pressure decline),[2]; 3 wk TAC + Sil,−16758 ± 917 (f) mmHg/s
same,dP/dtmx/IP (dP/dtmax normalized to instantaneous developed pressure),[2]; 3 wk TAC + Sil,256.5 ± 8.4 g/s
same,CO (cardiac output),"[2]; Sildenafil 3 wk, no TAC",11.1 ± 1.1 mL/min
same,EDP (LV end-diastolic pressure),"[2]; Sildenafil 3 wk, no TAC",6.5 ± 1.0 mmHg
same,EDV (LV end-diastolic volume),"[2]; Sildenafil 3 wk, no TAC",32.8 ± 2.3 µL
same,EF (ejection fraction),"[2]; Sildenafil 3 wk, no TAC",61.4 ± 6.1%
same,ESP (LV end-systolic pressure),"[2]; Sildenafil 3 wk, no TAC",101.5 ± 2.6 mmHg
same,ESV (LV end-systolic volume),"[2]; Sildenafil 3 wk, no TAC",13.0 ± 2.7 µL
same,Ea (effective arterial elastance),"[2]; Sildenafil 3 wk, no TAC",5.3 ± 0.5 mmHg/μL
same,Eesn (end-systolic elastance normalized to heart mass),"[2]; Sildenafil 3 wk, no TAC",47.6 ± 5.8 mmHg/μL/g
same,HR (heart rate),"[2]; Sildenafil 3 wk, no TAC",558.5 ± 22.9 MIN^−
same,Msw (preload recruitable stroke work),"[2]; Sildenafil 3 wk, no TAC",84.0 ± 5.7 mmHg
same,PFR/EDV (peak diastolic filling rate normalized to EDV),"[2]; Sildenafil 3 wk, no TAC",34.1 ± 1.9 s⁻¹
same,Tau (time constant of pressure relaxation),"[2]; Sildenafil 3 wk, no TAC",7.6 ± 0.4 M·s
same,dP/dtmax (maximal rate of pressure rise),"[2]; Sildenafil 3 wk, no TAC",11843 ± 681 mmHg/s
same,dP/dtmin (peak rate of LV pressure decline),"[2]; Sildenafil 3 wk, no TAC",−10689 ± 399 mmHg/s
same,dP/dtmx/IP (dP/dtmax normalized to instantaneous developed pressure),"[2]; Sildenafil 3 wk, no TAC",183.7 ± 6.9 s⁻¹
same,TAC-increased PI3Kα activity,PI3Kα,suppressed
same,TAC-increased Akt activity,Akt,suppressed this response at both time points to near baseline
